Assay results taken from PubChem BioAssay AID2060902 (Molecular Pharmacology Branch, DTP, NCI, 2025).

Test system: 485368-065-R3-J5-PDC spheroids with HUVEC/MSC, viability
Assay: Anticancer human tumor 485368-065-R3-J5-PDC patient-derived pancreatic carcinoma cell line growth inhibition [RAS]
Details: for IC50: curve of first compound; for viability, T/C: stronger effect = lower value
Outline: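 Multi-cell-type spheroids: tumor cells plus HUVEC endothelial cells and mesenchymal stem cells. RAS-pathway inhibitors were combined with targeted agents, each dosed in half-log steps down from clinical Cmax, or from 10 microM when Cmax was unknown.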
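Also: spheroids exposed to agents for seven days before readout.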

For `CCc1c2c(nc3ccc(O)cc13)-c1cc3c(c(=O)n1C2)COC(=O)[C@]3(O)CC` + CCn1c(-c2cc(N3CCN(C)CC3)cnc2C(C)OC)c2c3cc(ccc31)-c1csc(n1)CC(NC(=O)C1CC1C)C(=O)N1CCCC(N1)C(=O)OCC(C)(C)C2, the IC50 (second compound 0.000949 µM) was < 0.949 nM, the IC50 (second compound 0.003 µM) was < 0.949 nM and the IC50 (second compound 0.00949 µM) was < 0.949 nM. The IC50 (second compound 0.03 µM) was < 0.949 nM, the IC50 (second compound 0.0949 µM) was < 0.949 nM and the IC50 (second compound 0.3 µM) was < 0.949 nM. For the same compound, the viability, T/C (second compound 0.000949 µM, first compound 0.000949 µM) was 29.2%, the viability, T/C (second compound 0.000949 µM, first compound 0.003 µM) was 19.3% and the viability, T/C (second compound 0.000949 µM, first compound 0.00949 µM) was 12.3%. The viability, T/C (second compound 0.000949 µM, first compound 0.03 µM) was 6.49%, the viability, T/C (second compound 0.000949 µM, first compound 0.0949 µM) was 3.81% and the viability, T/C (second compound 0.000949 µM, first compound 0.3 µM) was 3.85%. For the same compound, the viability, T/C (second compound 0.003 µM, first compound 0.000949 µM) was 17.6%, the viability, T/C (second compound 0.003 µM, first compound 0.003 µM) was 13.6% and the viability, T/C (second compound 0.003 µM, first compound 0.00949 µM) was 9.1%. It also gave a viability, T/C (second compound 0.003 µM, first compound 0.03 µM) of 7.85%, a viability, T/C (second compound 0.003 µM, first compound 0.0949 µM) of 5.44% and a viability, T/C (second compound 0.003 µM, first compound 0.3 µM) of 3.67%. It also gave a viability, T/C (second compound 0.00949 µM, first compound 0.000949 µM) of 15.4%, a viability, T/C (second compound 0.00949 µM, first compound 0.003 µM) of 11.8% and a viability, T/C (second compound 0.00949 µM, first compound 0.00949 µM) of 8.19%. It also gave a viability, T/C (second compound 0.00949 µM, first compound 0.03 µM) of 7.82%, a viability, T/C (second compound 0.00949 µM, first compound 0.0949 µM) of 5.53% and a viability, T/C (second compound 0.00949 µM, first compound 0.3 µM) of 6.59%. It also gave a viability, T/C (second compound 0.03 µM, first compound 0.000949 µM) of 9.82%, a viability, T/C (second compound 0.03 µM, first compound 0.003 µM) of 8.14% and a viability, T/C (second compound 0.03 µM, first compound 0.00949 µM) of 6.87%. For the same compound, the viability, T/C (second compound 0.03 µM, first compound 0.03 µM) was 8.66%, the viability, T/C (second compound 0.03 µM, first compound 0.0949 µM) was 5.8% and the viability, T/C (second compound 0.03 µM, first compound 0.3 µM) was 7.18%. The viability, T/C (second compound 0.0949 µM, first compound 0.000949 µM) was 8.87%, the viability, T/C (second compound 0.0949 µM, first compound 0.003 µM) was 8.54% and the viability, T/C (second compound 0.0949 µM, first compound 0.00949 µM) was 6.42%. The viability, T/C (second compound 0.0949 µM, first compound 0.03 µM) was 6.3%, the viability, T/C (second compound 0.0949 µM, first compound 0.0949 µM) was 6.27% and the viability, T/C (second compound 0.0949 µM, first compound 0.3 µM) was 5.48%. It also gave a viability, T/C (second compound 0.3 µM, first compound 0.000949 µM) of 7.33%, a viability, T/C (second compound 0.3 µM, first compound 0.003 µM) of 9.17% and a viability, T/C (second compound 0.3 µM, first compound 0.00949 µM) of 6.28%. It also gave a viability, T/C (second compound 0.3 µM, first compound 0.03 µM) of 5.07%, a viability, T/C (second compound 0.3 µM, first compound 0.0949 µM) of 5.93% and a viability, T/C (second compound 0.3 µM, first compound 0.3 µM) of 5.26%.
